# Measurements: patent publication US20060167006A1, “Method of treatment” (priority 2003, published 2006)
# How the values were obtained:
# Format in all cases: cell-based, human
# T3M4 cells = test: Growth factor-induced proliferation (MTT), T3M4; conditions: for Maximal effect of growth factor on cell growth: T3M4, growth factor alone (absence of Compound I), 72 hours, MTT
# Experimental: (§1) Cell culture and MTT assay: Human pancreatic cancer cell lines are routinely grown in DMEM (Colo-357 and Mia-PaCa-2) or RPMI (Aspc-1, BxPc-3, Capan-1, and T3M4) supplemented with 10% FBS, 100 U/ml penicillin, and 100 μg/ml streptomycin (complete medium). To assess cell proliferation, the MTT test is employed. […] After 48 or 72 hours of incubation, 3-(4,5-methylthiazol-2-yl)-2,5-diphenyl-tetrazolium bromide (MTT) is added (50 μg/well) for 4 hours. Formazan products are solubilized with acidic isopropanol, and the optical density is measured at 570 nm. […] All experiments are performed in triplicate.
# (§2) EGF-induced proliferation of both Mia-PaCa-2 and T3M4 cell lines in a dose-dependent manner is seen with maximal effects of +72% ±7.5% (Mia-PaCa-2) and +52% ±23% (T3M4). […] FGF-2 markedly stimulates cell growth in Mia-PaCa-2 cell lines with maximal effects of +79% ±6%, and only slightly stimulated T3M4 cell lines, with maximal effects of +7% ±4%. […] Both cell lines are less sensitive to IGF-1 stimulation compared with EGF and FGF-2, with maximal effects of +24% ±2% in Mia-PaCa-2 and +17% ±4% in. T3M4.
# Mia-PaCa-2 cells = test: Growth factor-induced proliferation (MTT), Mia-PaCa-2; conditions: for Maximal effect of growth factor on cell growth: Mia-PaCa-2, growth factor alone (absence of Compound I), 72 hours, MTT
# Experimental: as §1, §2
# MAPK = test: Western blot of MAPK phosphorylation in growth factor-conditioned cells; conditions: Mia-PaCa-2 and T3M4 cells, data not shown
# Experimental: Western blot analysis: Cell culture monolayers are washed twice with ice-cold PBS and lysed with buffer containing Tris-HCl (50 mM, pH 7.4), NP-40 (1%), Na-deoxycholate (0.25%), NaCl (150 mM), EDTA (1 mM), PMSF (1 mM), Na3VO4 (1 mM), NaF (1 mM) and one tablet of complete mini-EDTA-free protease inhibitor cocktail (in 10 ml buffer). Protein concentration is determined by the BCA protein assay (Pierce Chemical Co., Rockford, Ill., USA). 30 μg of cell lysates are separated on SDS-polyacrylamide gels and electroblotted onto nitrocellulose membranes. Membranes are then incubated in blocking solution (5% nonfat-milk in 20 mM Tris-HCl, 150 mM NaCl, 0.1% Tween-20) (TBS-T), followed by incubation with the indicated antibodies at 4° C. overnight. The membranes are then washed in TBS-T and incubated with HRPO-conjugated secondary antibodies for 1 hour at room temperature. Antibody detection is performed with an enhanced chemiluminescence reaction. Statistical analysis: Results are expressed as mean±SEM. For statistical analysis, the Student's t-test is used. Significance is defined as p<0.05.
# [1] = system: BxPc-3, Colo-357 and Capan-1; test: PDGF effect on cell growth, three additional cell lines; conditions: BxPc-3, Colo-357 and Capan-1, growth factor alone
# Experimental: as §1, §2
Substance,Maximal effect of growth factor on cell growth (T3M4 cells),Maximal effect of growth factor on cell growth (Mia-PaCa-2 cells),"Induction of cell proliferation by growth factor (T3M4 cells; T3M4, growth factor alone)","Induction of cell proliferation by growth factor (Mia-PaCa-2 cells; Mia-PaCa-2, growth factor alone)",Induction of PDGF and MAPK kinase phosphorylation (MAPK),Effect of growth factor on cell growth [1]
IGF-1: human recombinant IGF-1 from R&D Systems,+17% ±4,+24% ±2,–,–,–,–
PDGF,–,–,does not induce cell proliferation,does not induce cell proliferation,does not induce PDGF and MAPK kinase phosphorylation,no effect on cell growth
FGF-2: human recombinant FGF-2 from R&D Systems,+7% ±4,+79% ±6,–,–,–,–
